According to US6586420B1, “Quinolinecarboxylic acid derivative or its salt” (Wakunaga Pharmaceutical Co., Ltd., priority 1999, dated 2003):
Converted amounts (≈) assume the structure as drawn.

Columns and labels:
female ICR mouse = test: Test on phototoxicity (ear erythema after UV exposure); assay type: in vivo; conditions: 40 mg/kg/10 mL intravenous, UV 320 to 400 nm for 4 hours; for Phototoxicity average score (ears): 0 point no abnormality to 3 points heavy erythema or edema
Experimental: (2) Test on Phototoxicity
The phototoxicity was tested in accordance with the following method.
After intravenous administration (40 mg/kg/10 mL) of each of the test compounds to a female ICR mouse (5-6 week old), the mouse was exposed to ultraviolet rays (320 to 400 nm, 1.8 mW/cm^2/sec) for 4 hours.
no abnormality (0 point); slight erythema (1 point); medium erythema (2 points); and heavy erythema or edema (3 points)

MRSA W200 = test: Test on antibacterial action (MIC, standard method of Japan Society of Chemotherapy); assay type: cell-based; conditions: for MIC: Staphylococcus aureus, read-out: minimum growth inhibitory concentration (MIC)
Experimental: (§1) (1) Test on Antibacterial Action
(§2) In accordance with the standard method established by Japan Society of Chemotherapy (CHEMOTHERAPY, 29(1),76(1981)), the minimum growth inhibitory concentration (MIC: μg/mL) was measured.

S. aureus 209P = test: as above; assay type: cell-based; conditions: for MIC: Staphylococcus aureus, read-out: minimum growth inhibitory concentration (MIC)
Experimental: as §1, §2

E. coli NIHJ-JC2 = test: as above; assay type: cell-based; conditions: for MIC: Escherichia coli, NIHJJC2, read-out: minimum growth inhibitory concentration (MIC)
Experimental: as §1, §2

K. peumoniae KC-1 = test: as above; assay type: cell-based; conditions: for MIC: read-out: minimum growth inhibitory concentration (MIC)
Experimental: as §1, §2

S. aureus Smith = test: as above; assay type: cell-based; conditions: for MIC: Staphylococcus aureus, read-out: minimum growth inhibitory concentration (MIC)
Experimental: as §1, §2

P. aeruginosa IFO3445 = test: as above; assay type: cell-based; conditions: for MIC: Pseudomonas aeruginosa, read-out: minimum growth inhibitory concentration (MIC)
Experimental: as §1, §2

B. subtilis ATCC6633 = test: as above; assay type: cell-based; conditions: for MIC: Bacillus subtilis, read-out: minimum growth inhibitory concentration (MIC)
Experimental: as §1, §2

S. epidermidis IFO12293 = test: as above; assay type: cell-based; conditions: for MIC: Staphylococcus epidermidis, read-out: minimum growth inhibitory concentration (MIC)
Experimental: as §1, §2

[1] = Test on photostability (UV spectra after UVA exposure of solution); assay type: physicochemical; conditions: solution in 0.08% NaOH diluted 100-fold with PBS(-); UVA (black light) up to 20 minutes; UV spectra 190 to 400 nm
Experimental: (2) Test on Photostability
The test on photostability was made in accordance with the following method.
With 0.08% NaOH, 1 mg/mL of the test compound was prepared. The resulting solution was diluted 100-fold with PBS(−). Into the wells of a 24-well plate, 1.5 ml portions of the diluted solution were poured, respectively. Just after the solution was exposed to UVA under an UV light (black light, product of Toshiba Corporation) for 0, 2, 5, 10 and 20 minutes, UV spectra within a range of 190 to 400 nm were measured (“UV-240”, product of Shimadzu Corporation).

Structure (SMILES) | Phototoxicity frequency (female ICR mouse; 0 hour after exposure) | Phototoxicity average score (ears) (female ICR mouse; 0 hour after exposure) | Phototoxicity frequency (female ICR mouse; 24 hours after exposure) | Phototoxicity average score (ears) (female ICR mouse; 24 hours after exposure) | Phototoxicity frequency (female ICR mouse; 48 hours after exposure) | Phototoxicity average score (ears) (female ICR mouse; 48 hours after exposure) | MIC (MRSA W200) | MIC (S. aureus 209P) | MIC (E. coli NIHJ-JC2) | MIC (K. peumoniae KC-1) | MIC (S. aureus Smith) | MIC (P. aeruginosa IFO3445) | MIC (B. subtilis ATCC6633) | MIC (S. epidermidis IFO12293) | minimum growth inhibitory concentration (MIC) (MRSA W200) | minimum growth inhibitory concentration (MIC) (S. aureus 209P) | minimum growth inhibitory concentration (MIC) (E. coli NIHJ-JC2) | minimum growth inhibitory concentration (MIC) (K. peumoniae KC-1) | minimum growth inhibitory concentration (MIC) (S. aureus Smith) | minimum growth inhibitory concentration (MIC) (P. aeruginosa IFO3445) | other results
NC1CCN(c2nc3c(cc2F)c(=O)c(C(=O)O)cn3-c2ccc(F)cc2F)C1 (racemic) [Tosufloxacin, (±)-7-(3-amino-1-pyrrolidinyl)-6-fluoro-1-(2,4-difluorophenyl)-1,4-dihydro-4-oxo-1,8-naphthyridine-3-carboxylic acid] | 4/5 | 1.8 | 4/5 | 0.8 | 1/5 | 0.2 | – | – | – | – | – | – | – | – | – | – | – | – | – | – | –
O=C(O)c1cn(C2CC2)c2cc(N3CCNCC3)c(F)cc2c1=O [Ciprofloxacin, 1-cyclopropyl-6-fluoro-7-(1-piperazinyl)-1,4-dihydro-4-oxoquinoline-3-carboxylic acid] | – | – | – | – | – | – | 0.78 µg/mL (≈ 2.35 µM) | 0.2 µg/mL (≈ 0.604 µM) | 0.013 µg/mL (≈ 0.0392 µM) | 0.025 µg/mL (≈ 0.0754 µM) | 0.2 µg/mL (≈ 0.604 µM) | 0.39 µg/mL (≈ 1.18 µM) | 0.05 µg/mL (≈ 0.151 µM) | 0.78 µg/mL (≈ 2.35 µM) | – | – | – | – | – | – | –
Nc1nc(-n2cc(C(=O)O)c(=O)c3cc(F)c(N4CC(O)C4)c(Cl)c32)c(F)cc1F.OC1CNC1 [Comparative compound 1, 1-(6-amino-3,5-difluoropyridin-2-yl)-8-chloro-6-fluoro-7-(3-hydroxyazetidin-1-yl)-1,4-dihydro-4-oxoquinoline-3-carboxylic acid.3-hydroxyazetidine salt] | 0/4 | 0 | 0/4 | 0 | 0/4 | 0 | – | – | – | – | – | – | – | – | 0.006 µg/mL | 0.006 µg/mL | 0.05 µg/mL | 0.05 µg/mL | 0.003 µg/mL | 0.39 µg/mL | minimum growth inhibitory concentration (MIC) (B. subtilis ATCC6633): 0.05 µg/mL; minimum growth inhibitory concentration (MIC) (S. epidermidis IFO12293): 0.013 µg/mL
Nc1nc(-n2cc(C(=O)O)c(=O)c3cc(F)c(N4CC(O)C4)c(F)c32)c(F)cc1F [Comparative compound 2, 1-(6-amino-3,5-difluoropyridin-2-yl)-6,8-difluoro-7-(3-hydroxyzetidin-1-yl)-1,4-dihydro-4-oxoquinoline-3-carboxylic acid] | 0/4 | 0 | 0/4 | 0 | 0/4 | 0 | – | – | – | – | – | – | – | – | 0.025 µg/mL | 0.013 µg/mL | 0.10 µg/mL | 0.10 µg/mL | 0.006 µg/mL | 0.39 µg/mL | minimum growth inhibitory concentration (MIC) (B. subtilis ATCC6633): 0.025 µg/mL; minimum growth inhibitory concentration (MIC) (S. epidermidis IFO12293): 0.050 µg/mL
Cc1c(N2CC(O)C2)c(F)cc2c(=O)c(C(=O)O)cn(-c3nc(N)c(F)cc3F)c12 [Compound 1, 1-(6-amino-3,5-difluoropyridin-2-yl)-6-fluoro-7-(3-hydroxyazetidin-1-yl)-8-methyl-1,4-dihydro-4-oxoquinoline-3-carboxylic acid] | 0/4 | 0 | 0/4 | 0 | 0/4 | 0 | 0.013 µg/mL (≈ 0.0309 µM) | 0.006 µg/mL (≈ 0.0143 µM) | 0.05 µg/mL (≈ 0.119 µM) | 0.05 µg/mL (≈ 0.119 µM) | < 0.003 µg/mL | 0.39 µg/mL (≈ 0.928 µM) | 0.025 µg/mL (≈ 0.0595 µM) | 0.013 µg/mL (≈ 0.0309 µM) | – | – | – | – | – | – | Photostability: decomposition by exposure to ultraviolet rays [1]: hardly decomposed
C[C@H]1COc2c(N3CCN(C)CC3)c(F)cc3c(=O)c(C(=O)O)cn1c23 [Levofloxacin, S-(−)-9-fluoro-2,3-dihydro-3-methyl-10-(4-methyl-1-piperazinyl)-7-oxo-7H-pyrido[1,2,3-de][1,4]-benzoxazine-6-carboxylic acid] | – | – | – | – | – | – | 0.39 µg/mL (≈ 1.08 µM) | 0.2 µg/mL (≈ 0.553 µM) | 0.05 µg/mL (≈ 0.138 µM) | 0.05 µg/mL (≈ 0.138 µM) | 0.1 µg/mL (≈ 0.277 µM) | 0.78 µg/mL (≈ 2.16 µM) | 0.1 µg/mL (≈ 0.277 µM) | 0.39 µg/mL (≈ 1.08 µM) | – | – | – | – | – | – | –
